In patent US20090253709A1 (NATIONAL DEFENSE MEDICAL CENTER, priority 2008, published 2009):
Like-named read-outs stand apart in the source and are kept apart here.

Experiments:
hTERT expression = test: SEAP assay, H1299/PhTERT-driven SEAP system; assay type: cell-based, human; conditions: for activity at 1 µM / activity at 10 µM / activity at 100 µM: Homo sapiens
From the text: The condition of the cells for selecting the telomerase inhibitor must be the cancer cells with telomerase activity. H1299 is a non-small cell lung cancer cell line with telomerase activity. The hTERT communication gene linked behind PhTERT which is located at the fifth chromosome of H1299 cell can be expressed; however, this expression is hard to detect. Therefore, the plasmid having the SEAP communication gene linked behind PhTERT was transfected into H1299 cells. Under the identical condition, after PhTERT was activated, the SEAP communication gene linked behind the plasmid was also activated. This gene could be detected by this analytic method while expressing.
If additionally added reagent can inhibit PhTERT, the linked SEAP communication gene will not be expressed, and the hTERT communication gene linked behind PhTERT at the fifth chromosome will not be expressed. […]
The cellular medium after the cellular incubation was transferred into the eppondorf tube, and the activity of endogeneous alkaline phosphatase was inactivated at 65° C. for 10 minutes. After centrification, the mixture was obtained by mixing 50 μl of the supernatant with the equal volume of the SEAP buffer. The mixture and the substrate (120 mM of p-nitrophenylphosphate) were preheated at 37° C. for 10 minutes respectively, and the mixture and the substrate were mixed at a ratio of 1:10 and reacted at 37° C. The absorbance of visible light at 405 nm was determined at the appropriate time intervals, and the enzymatic activity of SEAP was represented by the speed of the increasing absorbance at 405 nm.
The selection of telomerase inhibitors of the anthraquinone compounds provided in the present invention was performed by the H1299/PhTERT-driven SEAP system. SEAP is the communication gene in this drug selection model. The SEAP inhibition was shown as follows. The quantitative cellular medium obtained after the 24-hour drug-treatment and the identical inactivation was reacted with the quantitative SEAP substrate, and the absorbance at 405 nm was detected for 5 time intervals. Subsequently, the linear slope of absorbance to the measuring time was calculated, and the variance of absorbance at 405 nm per minute was represented and compared with the SEAP-producing result of drug-untreated H1299 cells. In addition, the influence of the cell-treated drug solution to the cellular proliferation and the drug toxicity to the cells were considered, and the cellular growth was evaluated by the MTT assay. The drug-treated cells were analyzed by the SEAP assay and the data analysis of MTT assay at the same time. Both results were compared so as to delete the influence of cell number or the activity to SEAP, and the dose-dependent phenomenon could be anticipated in the range of drug concentration designed by the laboratory.
In the preliminary selection, the highest concentration was 1000 μM, and 10-fold serial dilutions were done. Therefore, the final concentrations for treating cells were 1 μM, 10 μM and 100 μM, and the drug concentrations were repeated for 5 times. Since the chemically-synthetic drugs have colors thereon, the SEAP value of drug-treatment without cells was also determined to be the background value which was deducted while treating with the drugs. The candidate drug for inhibiting telomerase on the hTERT gene expression level was evaluated and anticipated.

telomerase = test: Telomeric repeat amplification protocol (TRAP); assay type: biochemical; conditions: compounds at 100, 10 and 1 μM; gel electrophoresis
A498 = test: In vitro cytotoxicity, Development Therapeutics Program; assay type: cell-based; conditions: A498, renal cancer; 1.0×10^−5 M
From the text: (§1) From the in vitro experiments of the Development Therapeutics Program of the Cancer Research Institute, the United States, it was known that the synthetic heterocyclic anthraquinone derivatives of the present invention have different inhibition levels to the different cancer cell lines under the concentration of 1.0×10^−5 M. Please refer to Table 2, which is the result of in vitro cytotoxicity of 2,7-disubstituted anthraquinone derivatives of the present invention.

ACHN = test: as above; assay type: cell-based; conditions: renal cancer, 1.0×10^−5 M
From the text: as §1

CAK1-1 = test: as above; assay type: cell-based; conditions: CAK1-1, renal cancer; 1.0×10^−5 M
From the text: as §1

COLO 205 = test: as above; assay type: cell-based; conditions: COLO 205, colon cancer; 1.0×10^−5 M
From the text: as §1

DU-145 = test: as above; assay type: cell-based; conditions: DU-145, prostate cancer; 1.0×10^−5 M
From the text: as §1

EKVX = test: as above; assay type: cell-based; conditions: non-small cell lung cancer, 1.0×10^−5 M
From the text: as §1

HCT-15 = test: as above; assay type: cell-based; conditions: HCT-15, colon cancer; 1.0×10^−5 M
From the text: as §1

HOP-62 = test: as above; assay type: cell-based; conditions: HOP-62, non-small cell lung cancer; 1.0×10^−5 M
From the text: as §1

HS 578T = test: as above; assay type: cell-based; conditions: breast cancer, 1.0×10^−5 M
From the text: as §1

HT29 = test: as above; assay type: cell-based; conditions: HT29, colon cancer; 1.0×10^−5 M
From the text: as §1

LOX IMVI = test: as above; assay type: cell-based; conditions: melanoma, 1.0×10^−5 M
From the text: as §1

M14 = test: as above; assay type: cell-based; conditions: M14, melanoma; 1.0×10^−5 M
From the text: as §1

MCF7 = test: as above; assay type: cell-based; conditions: MCF7, breast cancer; 1.0×10^−5 M
From the text: as §1

MDA-MB-231/ATCC = test: as above; assay type: cell-based; conditions: breast cancer, 1.0×10^−5 M
From the text: as §1

NCI-H23 = test: as above; assay type: cell-based; conditions: NCI-H23, non-small cell lung cancer; 1.0×10^−5 M
From the text: as §1

NCl-H226 = test: as above; assay type: cell-based; conditions: NCl-H226, non-small cell lung cancer; 1.0×10^−5 M
From the text: as §1

NCl-H522 = test: as above; assay type: cell-based; conditions: NCl-H522, non-small cell lung cancer; 1.0×10^−5 M
From the text: as §1

SK-OV-3 = test: as above; assay type: cell-based; conditions: SK-OV-3, ovarian cancer; 1.0×10^−5 M
From the text: as §1

SR = test: as above; assay type: cell-based; conditions: leukemia, 1.0×10^−5 M
From the text: as §1

UACC-257 = test: as above; assay type: cell-based; conditions: UACC-257, melanoma; 1.0×10^−5 M
From the text: as §1

[1] = NCI-H1299, H1299, compound concentration 1 μM, read-out: SEAP (Inhibition μM ± SD)
[2] = NCI-H1299, H1299, compound concentration 10 μM, read-out: SEAP (Inhibition μM ± SD)
[3] = NCI-H1299, H1299, compound concentration 100 μM, read-out: SEAP (Inhibition μM ± SD)
[4] = NCI-H1299, read-out: SEAP (Inhibition μM ± SD)

`O=C(CN1CCCC1)Nc1ccc2c(c1)C(=O)c1cc(NC(=O)CN3CCCC3)ccc1C2=O` [Compound 6, 2,7-Bis[2-(pyrrolidino)acetamido]anthraquinone] showed an activity at 1 µM (hTERT expression; [1]) of 88 ± 10%, an activity at 10 µM (hTERT expression; [2]) of 48 ± 13% and an activity at 100 µM (hTERT expression; [3]) of 30 ± 10%. For the same compound, the “telomerase inhibition effect in TRAP assay” value (telomerase) was “telomerase inhibition effect”.
Compound `CCNCC(=O)Nc1ccc2c(c1)C(=O)c1cc(NC(=O)CNCC)ccc1C2=O` [Compound 10, 2,7-Bis[2-(ethylamino)acetamido]anthraquinone] has an activity at 1 µM (hTERT expression; [4]) of 60 ± 10%, an activity at 10 µM (hTERT expression; [4]) of 35 ± 5% and an activity at 100 µM (hTERT expression; [4]) of 34 ± 3%. The “telomerase inhibition effect in TRAP assay” value (telomerase) was “telomerase inhibition effect”.
Work on `CC(C)NCC(=O)Nc1ccc2c(c1)C(=O)c1cc(NC(=O)CNC(C)C)ccc1C2=O` [Compound 13, 2,7-Bis[2-(isopropylamino)acetamido]anthraquinone] yielded an activity at 1 µM (hTERT expression; [4]) of 73 ± 31%, an activity at 10 µM (hTERT expression; [4]) of 28 ± 18% and an activity at 100 µM (hTERT expression; [4]) of 21 ± 16%. The “telomerase inhibition effect in TRAP assay” value (telomerase) was “telomerase inhibition effect”.
`O=C(CCN1CCCC1)Nc1ccc2c(c1)C(=O)c1cc(NC(=O)CCN3CCCC3)ccc1C2=O` [Compound 18, 2,7-Bis[3-(pyrrolidino)propionamido]anthraquinone] gave an activity at 1 µM (hTERT expression; [1]) of 73 ± 11%, an activity at 10 µM (hTERT expression; [2]) of 29 ± 15% and an activity at 100 µM (hTERT expression; [3]) of 17 ± 13%. The “Cellular growth rate (%)” value (A498) was −0.91%, the “Cellular growth rate (%)” value (ACHN) was 29.65% and the “Cellular growth rate (%)” value (CAK1-1) was 55.55%. For the same compound, the “Cellular growth rate (%)” value (COLO 205) was −29.04%, the “Cellular growth rate (%)” value (DU-145) was 29.53% and the “Cellular growth rate (%)” value (EKVX) was 58.72%. The “Cellular growth rate (%)” value (HCT-15) was 56.14%, the “Cellular growth rate (%)” value (HOP-62) was 18.79% and the “Cellular growth rate (%)” value (HS 578T) was 5.26%. The “Cellular growth rate (%)” value (HT29) was 19.47%, the “Cellular growth rate (%)” value (LOX IMVI) was 30.74% and the “Cellular growth rate (%)” value (M14) was 53.88%. For the same compound, the “Cellular growth rate (%)” value (MCF7) was 13.35%, the “Cellular growth rate (%)” value (MDA-MB-231/ATCC) was 30.47% and the “Cellular growth rate (%)” value (NCI-H23) was 31.49%. For the same compound, the “Cellular growth rate (%)” value (NCl-H226) was 41.10%, the “Cellular growth rate (%)” value (NCl-H522) was 29.16% and the “Cellular growth rate (%)” value (SK-OV-3) was 27.14%. For the same compound, the “Cellular growth rate (%)” value (SR) was 19.75% and the “Cellular growth rate (%)” value (UACC-257) was −17.88%.
`CN(C)CCC(=O)Nc1ccc2c(c1)C(=O)c1cc(NC(=O)CCN(C)C)ccc1C2=O` [Compound 20, 2,7-Bis[3-(dimethylamino)propionamido]anthraquinone] was tested, and the activity at 1 µM (hTERT expression; [4]) was 5 ± 94%, the activity at 10 µM (hTERT expression; [4]) was 13 ± 30% and the “telomerase inhibition effect in TRAP assay” value (telomerase) was “telomerase inhibition effect”.
`CN1CCN(CCC(=O)Nc2ccc3c(c2)C(=O)c2cc(NC(=O)CCN4CCN(C)CC4)ccc2C3=O)CC1` [Compound 23, 2,7-Bis[3-(N-methylpiperazino)propionamido]anthraquinone] gave an activity at 1 µM (hTERT expression; [1]) of 75 ± 16%, an activity at 10 µM (hTERT expression; [2]) of 52 ± 11% and an activity at 100 µM (hTERT expression; [3]) of 21 ± 10%.
For `O=C(CCN1CCNCC1)Nc1ccc2c(c1)C(=O)c1cc(NC(=O)CCN3CCNCC3)ccc1C2=O` [Compound 24, 2,7-Bis[3-(piperazino)propionamido]anthraquinone], the activity at 1 µM (hTERT expression; [1]) was 75 ± 26%, the activity at 10 µM (hTERT expression; [2]) was 71 ± 21% and the activity at 100 µM (hTERT expression; [3]) was 71 ± 15%.
Work on `O=C(CCCCl)Nc1ccc2c(c1)C(=O)c1cc(NC(=O)CCCCl)ccc1C2=O` [Compound 25, 2,7-Bis(4-chlorobutyramido)anthraquinone] yielded an activity at 1 µM (hTERT expression; [1]) of 88 ± 19%, an activity at 10 µM (hTERT expression; [2]) of 86 ± 13% and an activity at 100 µM (hTERT expression; [3]) of 78 ± 17%.
Compound `CCC(=O)Nc1ccc2c(c1)C(=O)c1cc(NC(=O)CC)ccc1C2=O` [Compound 27, 2,7-Bis(propionamido)anthraquinone] has an activity at 1 µM (hTERT expression; [1]) of 90 ± 23%, an activity at 10 µM (hTERT expression; [2]) of 95 ± 14% and an activity at 100 µM (hTERT expression; [3]) of 85 ± 16%.
`CCCC(=O)Nc1ccc2c(c1)C(=O)c1cc(NC(=O)CCC)ccc1C2=O` [Compound 28, 2,7-Bis(butyramido)anthraquinone] was tested, and the activity at 1 µM (hTERT expression; [4]) was 90 ± 8%, the activity at 10 µM (hTERT expression; [4]) was 83 ± 6% and the activity at 100 µM (hTERT expression; [4]) was 83 ± 4%. The “telomerase inhibition effect in TRAP assay” value (telomerase) was “telomerase inhibition effect”.
Compound `O=C(Nc1ccc2c(c1)C(=O)c1cc(NC(=O)c3ccccc3)ccc1C2=O)c1ccccc1` [Compound 29, 2,7-Bis(benzoamido)anthraquinone] has an activity at 1 µM (hTERT expression; [1]) of 104 ± 10%, an activity at 10 µM (hTERT expression; [2]) of 92 ± 11% and an activity at 100 µM (hTERT expression; [3]) of 85 ± 19%. The “telomerase inhibition effect in TRAP assay” value (telomerase) was “telomerase inhibition effect”.
For `O=C(Cc1ccccc1)Nc1ccc2c(c1)C(=O)c1cc(NC(=O)Cc3ccccc3)ccc1C2=O` [Compound 30, 2,7-Bis(phenylacetamido)anthraquinone], the activity at 1 µM (hTERT expression; [1]) was 97 ± 18%, the activity at 10 µM (hTERT expression; [2]) was 91 ± 21% and the activity at 100 µM (hTERT expression; [3]) was 80 ± 17%. The “SEAP (telomerase inhibition)” value (hTERT expression; low concentration (1 μM)) was 70±6%.
`O=C(CCc1ccccc1)Nc1ccc2c(c1)C(=O)c1cc(NC(=O)CCc3ccccc3)ccc1C2=O` [Compound 31, 2,7-Bis(phenylpropionamido)anthraquinone] showed an activity at 1 µM (hTERT expression; [1]) of 89 ± 23%, an activity at 10 µM (hTERT expression; [2]) of 79 ± 8% and an activity at 100 µM (hTERT expression; [3]) of 61 ± 13%.
For `O=C1c2ccc(NC(=O)C3CCCCC3)cc2C(=O)c2cc(NC(=O)C3CCCCC3)ccc21` [Compound 34, 2,7-Bis(cyclohexanecarbonamido)anthraquinone], the activity at 1 µM (hTERT expression; [1]) was 96 ± 5%, the activity at 10 µM (hTERT expression; [2]) was 93 ± 3% and the activity at 100 µM (hTERT expression; [3]) was 80 ± 2%.
